Test results from patent US10285989B2, “Pyrimidinone amide compounds as PDE2 inhibitors” (Merck Sharp & Dohme Corp., priority 2015, dated 2019).

Columns and labels:
[1] = target: P-glycoprotein (P-gp, rat Mdr1a) (Rattus norvegicus, UniProt Q6PSM0); test: P-gp transport, experimental BA/AB ratio, rat LLC-Mdr1a; type: in vitro ADME; conditions: LLC-PK1; rat LLC-Mdrla; 1 μM substrate concentration
From the text: (§1) See Doan et al. “Passive permeability and P-glycoprotein-mediated efflux differentiate central nervous system (CNS) and non-CNS marketed drugs”, J. Pharm. Exper. […] Desirable human BA/AB ratio is less than 2.0. […] See, for example, Desai, et al. Integration of in Silico and in Vitro Tools for Scaffold Optimization during Drug Discovery: Predicting P-glycoprotein Efflux” Mol. Pharmac.

human PDE2A1 = human PDE2A1 (Homo sapiens (Human), UniProt O00408); test: PDE2 IMAP FP inhibition assay, human PDE2A1 (selectivity panel format); type: biochemical; conditions: Lab B; read-out: Human PDE2 Ki (nM) - Lab B
In short: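 IMAP fluorescence polarization assay; substrate 50 nM FAM-cAMP with 1000 nM cGMP, enzyme at ~20% conversion, in 10 mM Tris pH 7.2, 10 mM MgCl2, 1 mM DTT, 0.01% Tween-20. 60 min room temperature, stopped with IMAP binding reagent, 1 h, then parallel/perpendicular fluorescence read.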

Rhesus PDE2A3 = Rhesus PDE2A3 (Macaca mulatta, UniProt B3VTJ2); test: PDE2 fluorescence polarization (IMAP FP) inhibition assay, rhesus PDE2A3; type: biochemical, rhesus macaque; conditions: Lab B; read-out: Rhesus PDE2 Ki (nM) - Lab B
P-glycoprotein (P-gp) = P-glycoprotein (P-gp) (Homo sapiens (Human), UniProt P08183); test: P-gp transport, experimental BA/AB ratio, human; type: in vitro ADME; conditions: LLC-PK1, 1 μM substrate concentration
From the text: as §1

Sequence of P-glycoprotein (P-gp, rat Mdr1a) (Q6PSM0 1-1272): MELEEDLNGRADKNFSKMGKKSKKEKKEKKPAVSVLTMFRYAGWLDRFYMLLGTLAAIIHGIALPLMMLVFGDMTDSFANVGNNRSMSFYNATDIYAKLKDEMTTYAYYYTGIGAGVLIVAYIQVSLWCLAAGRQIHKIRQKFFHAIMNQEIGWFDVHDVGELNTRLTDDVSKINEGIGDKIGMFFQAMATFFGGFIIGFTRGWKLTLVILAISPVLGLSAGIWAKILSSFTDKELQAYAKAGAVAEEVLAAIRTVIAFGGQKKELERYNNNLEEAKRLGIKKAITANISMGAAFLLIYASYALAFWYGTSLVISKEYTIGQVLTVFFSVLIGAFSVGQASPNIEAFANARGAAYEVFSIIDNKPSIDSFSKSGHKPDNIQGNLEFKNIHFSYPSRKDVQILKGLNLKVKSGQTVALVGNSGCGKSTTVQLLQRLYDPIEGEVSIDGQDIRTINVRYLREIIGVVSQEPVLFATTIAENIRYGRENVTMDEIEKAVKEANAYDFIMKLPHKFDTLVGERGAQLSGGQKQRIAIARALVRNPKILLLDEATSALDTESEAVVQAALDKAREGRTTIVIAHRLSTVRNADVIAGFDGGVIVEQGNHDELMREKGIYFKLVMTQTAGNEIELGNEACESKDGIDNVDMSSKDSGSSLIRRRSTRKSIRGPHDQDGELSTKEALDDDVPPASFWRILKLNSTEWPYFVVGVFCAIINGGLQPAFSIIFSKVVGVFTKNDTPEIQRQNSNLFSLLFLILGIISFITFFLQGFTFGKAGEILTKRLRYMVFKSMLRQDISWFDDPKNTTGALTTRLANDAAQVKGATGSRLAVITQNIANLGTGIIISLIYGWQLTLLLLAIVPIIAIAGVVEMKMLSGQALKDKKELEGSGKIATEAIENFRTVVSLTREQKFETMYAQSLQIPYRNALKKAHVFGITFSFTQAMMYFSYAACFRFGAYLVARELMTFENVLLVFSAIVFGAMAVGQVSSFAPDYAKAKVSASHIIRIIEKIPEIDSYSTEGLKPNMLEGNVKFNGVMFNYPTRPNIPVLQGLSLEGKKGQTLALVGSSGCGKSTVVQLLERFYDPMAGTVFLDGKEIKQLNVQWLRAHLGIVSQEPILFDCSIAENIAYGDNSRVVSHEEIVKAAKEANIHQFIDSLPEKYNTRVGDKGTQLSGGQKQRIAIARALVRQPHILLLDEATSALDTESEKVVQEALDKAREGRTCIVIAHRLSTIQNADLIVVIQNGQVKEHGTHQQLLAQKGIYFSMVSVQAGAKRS
Sequence of Rhesus PDE2A3 (B3VTJ2 1-941): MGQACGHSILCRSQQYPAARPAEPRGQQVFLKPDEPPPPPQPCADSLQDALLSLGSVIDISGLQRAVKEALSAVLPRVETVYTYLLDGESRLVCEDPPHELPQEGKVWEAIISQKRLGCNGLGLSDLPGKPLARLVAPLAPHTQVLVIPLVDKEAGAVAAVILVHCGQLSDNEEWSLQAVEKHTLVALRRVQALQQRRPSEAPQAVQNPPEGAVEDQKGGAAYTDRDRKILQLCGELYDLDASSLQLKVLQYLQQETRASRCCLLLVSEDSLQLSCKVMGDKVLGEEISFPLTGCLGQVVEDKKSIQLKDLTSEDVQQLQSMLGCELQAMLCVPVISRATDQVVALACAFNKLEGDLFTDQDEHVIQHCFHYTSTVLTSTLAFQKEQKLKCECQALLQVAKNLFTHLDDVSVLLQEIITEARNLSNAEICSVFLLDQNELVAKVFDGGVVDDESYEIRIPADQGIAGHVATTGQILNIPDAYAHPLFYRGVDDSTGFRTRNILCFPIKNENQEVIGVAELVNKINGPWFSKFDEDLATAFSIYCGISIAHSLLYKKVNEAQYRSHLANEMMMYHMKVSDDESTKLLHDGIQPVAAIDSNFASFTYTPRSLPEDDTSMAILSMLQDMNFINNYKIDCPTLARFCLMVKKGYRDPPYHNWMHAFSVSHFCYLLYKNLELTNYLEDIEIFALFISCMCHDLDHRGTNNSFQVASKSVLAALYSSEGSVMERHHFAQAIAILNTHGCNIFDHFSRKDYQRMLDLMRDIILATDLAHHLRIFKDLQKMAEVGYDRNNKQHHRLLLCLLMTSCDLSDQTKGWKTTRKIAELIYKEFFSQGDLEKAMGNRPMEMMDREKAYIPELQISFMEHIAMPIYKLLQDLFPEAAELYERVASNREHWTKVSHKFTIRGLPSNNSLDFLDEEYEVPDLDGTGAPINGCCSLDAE
Sequence of human PDE2A1 (O00408 other isoform, or with tags, fused parts or gaps): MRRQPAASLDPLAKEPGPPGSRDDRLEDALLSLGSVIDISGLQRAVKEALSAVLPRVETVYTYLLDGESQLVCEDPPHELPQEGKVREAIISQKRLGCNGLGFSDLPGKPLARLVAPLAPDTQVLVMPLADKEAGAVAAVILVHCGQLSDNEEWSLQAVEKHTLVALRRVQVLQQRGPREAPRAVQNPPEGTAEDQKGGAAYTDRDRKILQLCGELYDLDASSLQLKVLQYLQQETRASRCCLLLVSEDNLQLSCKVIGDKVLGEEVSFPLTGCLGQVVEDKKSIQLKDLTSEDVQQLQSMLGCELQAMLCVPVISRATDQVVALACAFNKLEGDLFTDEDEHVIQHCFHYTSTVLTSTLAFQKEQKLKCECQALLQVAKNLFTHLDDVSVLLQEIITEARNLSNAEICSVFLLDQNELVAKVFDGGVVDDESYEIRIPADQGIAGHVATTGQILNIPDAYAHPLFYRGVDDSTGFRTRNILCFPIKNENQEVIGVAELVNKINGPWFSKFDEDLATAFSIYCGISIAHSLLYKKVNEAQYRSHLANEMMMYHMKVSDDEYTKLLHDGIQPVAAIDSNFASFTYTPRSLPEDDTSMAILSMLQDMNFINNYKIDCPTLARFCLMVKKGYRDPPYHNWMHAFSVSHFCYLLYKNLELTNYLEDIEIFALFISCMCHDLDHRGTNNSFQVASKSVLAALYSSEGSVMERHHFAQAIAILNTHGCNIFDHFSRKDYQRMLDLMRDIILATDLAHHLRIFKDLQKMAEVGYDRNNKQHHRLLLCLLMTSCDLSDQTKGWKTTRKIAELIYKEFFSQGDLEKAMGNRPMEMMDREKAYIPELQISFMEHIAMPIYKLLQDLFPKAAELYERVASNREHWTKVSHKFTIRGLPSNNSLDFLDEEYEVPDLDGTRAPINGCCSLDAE
Sequence of P-glycoprotein (P-gp) (P08183 whole entry): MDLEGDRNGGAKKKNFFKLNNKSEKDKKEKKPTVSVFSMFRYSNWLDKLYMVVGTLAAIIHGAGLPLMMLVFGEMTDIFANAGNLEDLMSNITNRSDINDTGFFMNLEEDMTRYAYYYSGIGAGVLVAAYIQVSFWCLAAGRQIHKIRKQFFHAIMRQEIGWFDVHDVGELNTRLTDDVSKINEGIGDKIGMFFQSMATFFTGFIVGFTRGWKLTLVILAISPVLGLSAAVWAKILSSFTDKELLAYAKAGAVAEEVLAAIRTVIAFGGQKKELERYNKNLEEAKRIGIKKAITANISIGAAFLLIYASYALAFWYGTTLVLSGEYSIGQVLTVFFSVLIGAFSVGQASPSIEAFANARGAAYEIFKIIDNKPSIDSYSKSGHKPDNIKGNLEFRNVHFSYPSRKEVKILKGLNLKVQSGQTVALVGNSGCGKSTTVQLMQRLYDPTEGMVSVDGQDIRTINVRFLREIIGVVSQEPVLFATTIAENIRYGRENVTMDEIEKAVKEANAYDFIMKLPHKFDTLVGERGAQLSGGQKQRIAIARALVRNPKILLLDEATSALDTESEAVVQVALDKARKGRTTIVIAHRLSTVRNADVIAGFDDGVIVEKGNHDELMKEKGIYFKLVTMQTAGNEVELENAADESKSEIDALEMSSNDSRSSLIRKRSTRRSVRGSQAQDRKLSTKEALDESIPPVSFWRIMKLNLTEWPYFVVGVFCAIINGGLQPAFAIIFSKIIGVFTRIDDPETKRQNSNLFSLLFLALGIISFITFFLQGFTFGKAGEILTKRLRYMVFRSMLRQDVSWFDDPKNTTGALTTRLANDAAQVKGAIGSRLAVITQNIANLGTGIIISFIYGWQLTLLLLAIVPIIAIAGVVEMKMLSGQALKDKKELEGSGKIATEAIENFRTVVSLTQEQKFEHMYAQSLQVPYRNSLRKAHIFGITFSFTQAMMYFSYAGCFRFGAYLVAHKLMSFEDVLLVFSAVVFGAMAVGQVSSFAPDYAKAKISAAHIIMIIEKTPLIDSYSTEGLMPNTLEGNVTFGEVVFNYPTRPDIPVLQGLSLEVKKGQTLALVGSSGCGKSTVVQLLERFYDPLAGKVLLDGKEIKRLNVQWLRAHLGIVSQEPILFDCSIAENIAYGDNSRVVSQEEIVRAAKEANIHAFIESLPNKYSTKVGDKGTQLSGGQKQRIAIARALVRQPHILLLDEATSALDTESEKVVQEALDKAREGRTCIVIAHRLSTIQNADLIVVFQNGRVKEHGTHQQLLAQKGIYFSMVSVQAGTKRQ

| efflux ratio at 1 μM [1] | Ki (human PDE2A1) [nM] | Ki (Rhesus PDE2A3) [nM] | efflux ratio at 1 μM (P-glycoprotein (P-gp)) | SMILES |
| --- | --- | --- | --- | --- |
| 12.7 | 0.39 | 0.46 | 2 | CN(C)c1nc(C(=O)N[C@@H](c2ccc(OC(F)F)cc2)C(C)(C)C)cc(=O)[nH]1 [Example 34, N-{(1R)-1-[4-(difluoromethoxy)phenyl]-2,2-dimethylpropyl}-2-(dimethylamino)-6-oxo-1,6-dihydropyrimidine-4-carboxamide] |
| 3.6 | 0.11 | 0.12 | 0.5 | CN(C)c1nc(C(=O)N[C@@H](c2ccc(C3CC3)cc2)C(C)(C)C)cc(=O)[nH]1 [Example 35, N-[(1R)-1-(4-cyclopropylphenyl)-2,2-dimethylpropyl]-2-(dimelhylamino)-6-oxo-1,6-dihydropyrimidine-4-carboxamide] |
| 2.4 | 1.02 | 0.87 | 0.5 | C[C@@H](NC(=O)c1cc(=O)[nH]c(N(C)C)n1)c1ccc(C2CC2)c(F)c1 [Example 40, N-[(1R)-1-(4-cyclopropyl-3-fluorophenyl)ethyl]-2-(dimethylamino)-6-oxo-1,6-dihydropyrimidine-4-carboxamide] |
| 3.6 | 0.36 | 0.31 | 0.4 | CC(C)[C@@H](NC(=O)c1cc(=O)[nH]c(N(C)C)n1)c1ccc(C2CC2)c(F)c1 [Example 41, N-[(1R)-1-(4-cyclopropyl-3-fluorophenyl)-2-methylpropyl]-2-(dimethylamino)-6-oxo-1,6-dihydropyrimidine-4-carboxamide] |
| 3 | 0.44 | 0.45 | 0.7 | CN(C)c1nc(C(=O)N[C@@H](c2ccc(C(F)(F)F)c(F)c2)C2(C)CC2)cc(=O)[nH]1 [Example 42, 2-(dimethylamino)-N-[(R)-[3-fluoro-4-(trifluoromethyl)phenyl](1-methylcyclopropyl)methyl]-6-oxo-1,6-dihydropyrimidine-4-carboxamide] |
| 2.3 | 0.32 | 0.23 | 0.7 | CN(C)c1nc(C(=O)N[C@@H](c2ccc(C(F)(F)F)cc2)C2(C)CC2)cc(=O)[nH]1 [Example 43, 2-(dimethylamino)-N-{(R)-(1-methylcyclopropyl)[4-(trifluoromethyl)phenyl]methyl}-6-oxo-1,6-dihydropyrimidine-4-carboxamide] |
| 2.1 | 1.5 | 1.6 | 0.7 | CN(C)c1nc(C(=O)N[C@@H](c2ccc(C(C)(C)C)cc2)C2(C)CC2)cc(=O)[nH]1 [Example 44, N-[(R)-(4-tert-butylphenyl)(1-methylcyclopropyl)methyl]-2-(dimethylamino)-6-oxo-1,6-dihydropyrimidine-4-carboxamide] |
| 10.1 | 1.7 | 2.1 | 0.6 | CN(C)c1nc(C(=O)NC2(c3ccc(S(F)(F)(F)(F)F)cc3)CC2)cc(=O)[nH]1 [Example 45, 2-(dimethylamino)-6-oxo-N-{1-[4-(pentafluoro-λ^6-sulfanyl)phenyl]cyclopropyl}-1,6-dihydropyrimidine-4-carboxamide] |
| 2.1 | 0.44 | 0.43 | 0.6 | CC(C)[C@@H](NC(=O)c1cc(=O)[nH]c(N(C)C)n1)c1ccc(C(F)(F)F)cc1 [Example 47, 2-(dimethylamino)-N-{(1R)-2-methyl-1-[4-(trifluoromethyl)phenyl]propyl}-6-oxo-1,6-dihydropyrimidine-4-carboxamide] |
| 6.4 | 1.7 | 1.9 | 1.5 | CC(C)[C@@H](NC(=O)c1cc(=O)[nH]c(N(C)C)n1)c1ccc(OC(F)F)c(F)c1 [Example 48, N-{(1R)-1-[4-(difluoromethoxy)-3-fluorophenyl]-2-methylpropyl}-2-(dimethylamino)-6-oxo-1,6-dihydropyrimidine-4-carboxamide] |
| 4.8 | 0.38 | 0.32 | 1.4 | CN(C)c1nc(C(=O)N[C@@H](c2ccc(OC(F)F)c(F)c2)C(C)(C)C)cc(=O)[nH]1 [Example 54, N-{(1R)-1-[4-(difluoromethoxy)-3-fluorophenyl]-2,2-dimethylpropyl}-2-(dimethylamino)-6-oxo-1,6-dihydropyrimidine-4-carboxamide] |
| 3.4 | 0.98 | 1.4 | 0.6 | CN(C)c1nc(C(=O)N[C@@H](c2ccc(OC(F)F)c(F)c2)C2(C)CC2)cc(=O)[nH]1 [Example 55, N-[(R)-[4-(difluoromethoxy)-3-fluorophenyl](1-methylcyclopropyl)methyl]-2-(dimethylamino)-6-oxo-1,6-dihydropyrimidine-4-carboxamide] |
| 1.7 | 0.51 | 0.71 | 0.3 | CN(C)c1nc(C(=O)N[C@@H](c2ccc(C3CC3)c(F)c2)C2CC2)cc(=O)[nH]1 [Example 56, N-[(R)-cyclopropyl(4-cyclopropyl-3-fluorophenyl)methyl]-2-(dimethylamino)-6-oxo-1,6-dihydropyrimidine-4-carboxamide] |
| 0.7 | 0.31 | 0.28 | 1.7 | CN(C)c1nc(C(=O)N[C@@H](c2ccc(S(F)(F)(F)(F)F)cc2)C2(C)CC2)cc(=O)[nH]1 [Example 57, 2-(dimethylamino)-N-{(R)-(1-methylcyclopropyl)[4-(pentafluoro-λ^6-sulfanyl)phenyl]methyl}-6-oxo-1,6-dihydropyrimidine-4-carboxamide] |
| 4.7 | 0.03 | 0.1 | 1.3 | CN(C)c1nc(C(=O)N[C@@H](c2ccc(C3CC3)c(F)c2)C(C)(C)C)cc(=O)[nH]1 [Example 58, N-[(1R)-1-(4-cyclopropyl-3-fluorophenyl)-2,2-dimethylpropyl]-2-(dimethylamino)-6-oxo-1,6-dihydropyrimidine-4-carboxamide] |
| 4.3 | 0.29 | 0.42 | 0.8 | CN(C)c1nc(C(=O)N[C@@H](c2ccc(C(F)F)cc2)C(C)(C)C)cc(=O)[nH]1 [Example 60, N-{(1R)-1-[4-(difluoromethyl)phenyl]-2,2-dimethylpropyl}-2-(dimethylamino)-6-oxo-1,6-dihydropyrimidine-4-carboxamide] |
| 12.3 | 0.75 | 0.82 | 1.6 | CN(C)c1nc(C(=O)N[C@@H](c2ccc(C(F)F)cc2)C2(C)CC2)cc(=O)[nH]1 [Example 61, N-[(R)-[4-(difluoromethyl)phenyl](1-methylcyclopropyl)methyl]-2-(dimethylamino)-6-oxo-1,6-dihydropyrimidine-4-carboxamide] |
| 5.2 | 0.52 | 0.55 | 1.2 | CN(C)c1nc(C(=O)N[C@@H](c2ccc(C(F)F)c(F)c2)C(C)(C)C)cc(=O)[nH]1 [Example 62, N-{(1R)-1-[4-(difluoromethyl)-3-fluorophenyl]-2,2-dimethylpropyl}-2-(dimethylamino)-6-oxo-1,6-dihydropyrimidine-4-carboxamide] |
| 4.8 | 0.21 | 0.23 | 0.3 | CN(C)c1nc(C(=O)N[C@@H](c2ccc(C3CC3)cc2)C2(C)CC2)cc(=O)[nH]1 [Example 71, N-[(R)-(4-cyclopropylphenyl)(1-methylcyclopropyl)methyl]-2-(dimethylamino)-6-oxo-1,6-dihydropyrimidine-4-carboxamide] |
| 6.9 | 0.17 | 0.26 | 1.2 | CN(C)c1nc(C(=O)N[C@@H](c2ccc(C(F)F)cc2F)C(C)(C)C)cc(=O)[nH]1 [Example 73, N-{(1R)-1-[4-(difluoromethyl)-2-fluorophenyl]-2,2-dimethylpropyl}-2-(dimethylamino)-6-oxo-1,6-dihydropyrimidine-4-carboxamide] |
| 4.5 | 0.12 | 0.11 | 1.6 | CN(C)c1nc(C(=O)N[C@@H](c2ccc(C(C)(F)F)cc2)C(C)(C)C)cc(=O)[nH]1 [Example 76, N-{(1R)-1-[4-(1,1-difluoroethyl)phenyl]-2,2-dimethylpropyl}-2-(dimethylamino)-6-oxo-1,6-dihydropyrimidine-4-carboxamide] |

| SMILES | efflux ratio at 1 μM [1] | Ki (human PDE2A1) [nM] | Ki (Rhesus PDE2A3) [nM] | efflux ratio at 1 μM (P-glycoprotein (P-gp)) |
| --- | --- | --- | --- | --- |
| CN(C)c1nc(C(=O)N[C@@H](c2ccc(C(F)(F)F)cc2F)C(C)(C)C)cc(=O)[nH]1 [Example 37, 2-(dimethylamino)-N-{(1R)-1-[2-fluoro-4-(trifluoromethyl)phenyl]-2,2-dimethylpropyl}-6-oxo-1,6-dihydropyrimidine-4-carboxamide] | 1.2 | 0.13 | 0.11 | 1 |
